Results reported in ChEMBL document CHEMBL4387721, “Proteolysis targeting chimeras (PROTACs) in 'beyond rule-of-five' chemical space: Recent progress and future challenges” (Bioorg Med Chem Lett, 2019).

Experiments:
Type in all cases: cell-based
[1] = biological target: T1, von Hippel-Lindau disease tumor suppressor/Tyrosine-protein kinase ABL1 (Homo sapiens, UniProt P00519+P40337); assay: Protac activity at VHL/c-ABL in human K562 cells assessed as induction of c-ABL protein degradation incubated for 24 hrs by immunoblot method
Target sequence in this assay (P00519 whole entry): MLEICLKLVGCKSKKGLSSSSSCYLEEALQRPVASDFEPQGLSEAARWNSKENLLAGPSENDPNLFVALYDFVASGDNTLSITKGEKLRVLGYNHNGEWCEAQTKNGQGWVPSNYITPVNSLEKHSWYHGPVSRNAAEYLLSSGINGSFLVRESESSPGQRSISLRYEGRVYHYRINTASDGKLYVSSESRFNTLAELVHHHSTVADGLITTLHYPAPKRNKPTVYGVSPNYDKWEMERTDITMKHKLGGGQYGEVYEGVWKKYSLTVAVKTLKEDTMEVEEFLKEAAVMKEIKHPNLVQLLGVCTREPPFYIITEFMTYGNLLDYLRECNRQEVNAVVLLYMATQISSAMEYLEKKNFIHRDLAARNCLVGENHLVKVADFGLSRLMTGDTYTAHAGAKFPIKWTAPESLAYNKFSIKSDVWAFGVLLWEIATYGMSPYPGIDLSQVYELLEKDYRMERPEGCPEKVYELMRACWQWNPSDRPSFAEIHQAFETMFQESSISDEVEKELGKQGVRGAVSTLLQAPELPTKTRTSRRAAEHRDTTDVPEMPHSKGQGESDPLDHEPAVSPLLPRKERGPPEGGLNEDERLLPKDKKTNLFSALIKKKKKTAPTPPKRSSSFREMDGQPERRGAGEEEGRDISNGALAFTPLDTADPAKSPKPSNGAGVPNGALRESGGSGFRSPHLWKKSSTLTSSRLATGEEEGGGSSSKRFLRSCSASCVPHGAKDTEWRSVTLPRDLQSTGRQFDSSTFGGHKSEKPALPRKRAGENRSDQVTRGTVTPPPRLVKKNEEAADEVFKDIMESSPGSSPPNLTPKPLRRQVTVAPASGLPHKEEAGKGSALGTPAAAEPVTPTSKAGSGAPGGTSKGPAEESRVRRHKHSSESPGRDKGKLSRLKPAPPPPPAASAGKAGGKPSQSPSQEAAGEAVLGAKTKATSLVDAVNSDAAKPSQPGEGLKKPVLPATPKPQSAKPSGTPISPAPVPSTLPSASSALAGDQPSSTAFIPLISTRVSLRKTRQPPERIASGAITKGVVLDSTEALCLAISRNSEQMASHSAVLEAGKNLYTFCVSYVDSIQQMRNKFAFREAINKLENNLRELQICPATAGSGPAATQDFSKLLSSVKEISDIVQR
Target sequence in this assay (P40337 whole entry): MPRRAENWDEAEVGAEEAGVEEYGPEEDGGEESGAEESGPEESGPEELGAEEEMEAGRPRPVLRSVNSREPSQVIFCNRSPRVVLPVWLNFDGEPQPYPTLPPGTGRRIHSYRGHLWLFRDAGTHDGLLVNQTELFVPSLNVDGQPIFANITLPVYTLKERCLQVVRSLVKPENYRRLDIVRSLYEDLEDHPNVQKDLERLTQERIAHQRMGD

[2] = biological target: T1, von Hippel-Lindau disease tumor suppressor/Tyrosine-protein kinase ABL1; assay: Protac activity at VHL/c-ABL in human K562 cells assessed as induction of c-ABL protein degradation at 1 uM incubated for 24 hrs by immunoblot method relative to control
Target sequence in this assay (P00519 whole entry, looked up): as the sequence (P00519 whole entry) above
Target sequence in this assay (P40337 whole entry, looked up): as the sequence (P40337 whole entry) above

[3] = biological target: T2, Protein cereblon/Peptidyl-prolyl cis-trans isomerase FKBP1A (Homo sapiens, UniProt P62942+Q96SW2); assay: Protac activity at CRBN/FKBP12 in human Jurkat cells assessed as induction of FKBP12 protein degradation incubated for 12 hrs by immunoblot method
Target sequence in this assay (P62942 whole entry): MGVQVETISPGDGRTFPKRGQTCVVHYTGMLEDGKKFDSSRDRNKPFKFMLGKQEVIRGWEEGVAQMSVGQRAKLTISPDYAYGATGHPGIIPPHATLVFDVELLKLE
Target sequence in this assay (Q96SW2 whole entry): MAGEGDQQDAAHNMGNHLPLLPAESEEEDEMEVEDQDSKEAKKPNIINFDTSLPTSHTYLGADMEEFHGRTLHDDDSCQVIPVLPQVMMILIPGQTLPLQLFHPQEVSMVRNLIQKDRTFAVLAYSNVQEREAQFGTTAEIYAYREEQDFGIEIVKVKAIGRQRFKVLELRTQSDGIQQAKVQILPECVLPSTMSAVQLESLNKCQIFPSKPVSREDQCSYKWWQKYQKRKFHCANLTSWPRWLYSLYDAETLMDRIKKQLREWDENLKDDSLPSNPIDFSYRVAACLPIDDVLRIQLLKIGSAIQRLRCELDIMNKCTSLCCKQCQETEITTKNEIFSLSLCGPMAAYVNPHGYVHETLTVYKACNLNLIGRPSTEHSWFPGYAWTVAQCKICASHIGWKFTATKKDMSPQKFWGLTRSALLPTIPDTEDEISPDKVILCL

[4] = biological target: T2, Protein cereblon/Peptidyl-prolyl cis-trans isomerase FKBP1A; assay: Protac activity at CRBN/FKBP12 in human Jurkat cells assessed as induction of FKBP12 protein degradation up to 1000 nM incubated for 12 hrs by immunoblot method relative to control
Target sequence in this assay (P62942 2-108 limits assumed): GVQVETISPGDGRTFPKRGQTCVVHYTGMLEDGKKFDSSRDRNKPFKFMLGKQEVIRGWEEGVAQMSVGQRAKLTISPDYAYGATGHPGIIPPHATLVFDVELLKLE
Target sequence in this assay (Q96SW2 whole entry partner): as the sequence (Q96SW2 whole entry) above

| DC50 [1] | Emax [2] | DC50 [3] | Emax [4] | Structure (SMILES) |
| --- | --- | --- | --- | --- |
| 1000 nM | > 65% | – | – | Cc1nc(Nc2ncc(C(=O)Nc3c(C)cccc3Cl)s2)cc(N2CCN(CCCCCCOCCOCCOCCCCCC(=O)N[C@H](C(=O)N3C[C@H](O)C[C@H]3C(=O)NCc3ccc(-c4scnc4C)cc3)C(C)(C)C)CC2)n1 |
| – | – | 0.3 nM | > 95% | CO[C@H]1C[C@@H]2CC[C@@H](C)[C@@](O)(O2)C(=O)C(=O)N2CCCC[C@H]2C(=O)O[C@H]([C@H](C)C[C@@H]2CC[C@@H](OCCOCc3cn(CCOCCOCCNc4cccc5c4C(=O)N(C4CCC(=O)NC4=O)C5=O)nn3)[C@H](OC)C2)CC(=O)[C@H](C)/C=C(\C)[C@@H](O)[C@@H](OC)C(=O)[C@H](C)C[C@H](C)/C=C/C=C/C=C/1C (some centres undefined) |
